According to US12162858B2, “Quinoline derivatives as inhibitors of AXL/MER RTK and CSF1R” (QURIENT CO., LTD., priority 2018, dated 2024):
Read-outs that look alike come from different tables or passages of the source.

What was measured:
[1] = target: T1, Mer (Homo sapiens, UniProt Q12866); experiment: LanthaScreen Eu kinase binding assay for Mer; settings: read-out: Mer kinase binding activity (Kd)
T1 construct: purchased Life Technologies
T1 sequence (Q12866 21-999): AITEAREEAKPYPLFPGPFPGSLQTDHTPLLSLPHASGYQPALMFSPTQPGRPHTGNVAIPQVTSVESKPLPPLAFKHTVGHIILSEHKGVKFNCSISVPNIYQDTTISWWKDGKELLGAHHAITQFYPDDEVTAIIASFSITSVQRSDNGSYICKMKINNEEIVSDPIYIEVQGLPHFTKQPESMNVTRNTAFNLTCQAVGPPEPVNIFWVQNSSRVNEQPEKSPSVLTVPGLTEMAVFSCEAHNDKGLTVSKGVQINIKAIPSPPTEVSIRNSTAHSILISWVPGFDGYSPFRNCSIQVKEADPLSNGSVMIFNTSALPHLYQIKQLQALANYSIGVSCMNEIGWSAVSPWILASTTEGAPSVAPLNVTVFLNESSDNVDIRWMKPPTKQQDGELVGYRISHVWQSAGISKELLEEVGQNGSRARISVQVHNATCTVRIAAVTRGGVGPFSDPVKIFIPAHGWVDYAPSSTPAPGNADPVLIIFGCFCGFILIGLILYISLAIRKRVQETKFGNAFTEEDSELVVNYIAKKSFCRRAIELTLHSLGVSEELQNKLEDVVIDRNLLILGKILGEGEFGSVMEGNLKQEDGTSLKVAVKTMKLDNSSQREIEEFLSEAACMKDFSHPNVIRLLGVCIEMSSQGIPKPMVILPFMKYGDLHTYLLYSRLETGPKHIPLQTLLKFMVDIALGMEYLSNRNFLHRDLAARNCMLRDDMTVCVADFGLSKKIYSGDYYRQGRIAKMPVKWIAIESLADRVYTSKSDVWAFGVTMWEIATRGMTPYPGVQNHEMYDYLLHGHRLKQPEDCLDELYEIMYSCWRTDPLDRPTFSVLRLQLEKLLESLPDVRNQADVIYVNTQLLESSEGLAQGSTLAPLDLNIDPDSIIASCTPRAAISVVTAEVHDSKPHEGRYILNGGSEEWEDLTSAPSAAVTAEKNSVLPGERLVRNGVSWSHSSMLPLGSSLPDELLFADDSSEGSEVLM
Outline: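 Competitive displacement of Alexa Fluor 647-labeled Tracer 236 from the kinase, with binding detected by TR-FRET with a Eu-labeled anti-GST antibody. Compounds were run as 8-step DMSO serial dilutions and incubated 1 h at room temperature. Kd was calculated relative to DMSO vehicle control wells.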

[2] = target: CSF1R (Homo sapiens, UniProt P07333); experiment: KINOMEscan competition binding assay for CSF1R; design: DNA tag for qPCR (not a peptide); host or cells: E. coli/T7 phage or HEK-293; settings: for Kd: read-out: CSF1R kinase binding activity (Kd)
Outline: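 Values are either % inhibition at 0.1 uM, relative to DMSO (100% Ctrl) and a control compound (0% Ctrl), or Kd from an 11-point 3-fold series fitted with Hill slope −1. DNA-tagged kinase binds immobilized ligand beads with compound for 1 h at room temperature, and eluted kinase is measured by qPCR.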

[3] = read-out: CSF1R kinase binding activity, Percent (%) inhibition
[4] = read-out: CSF1R kinase binding activity, Range

Sequence of CSF1R (P07333 20-972): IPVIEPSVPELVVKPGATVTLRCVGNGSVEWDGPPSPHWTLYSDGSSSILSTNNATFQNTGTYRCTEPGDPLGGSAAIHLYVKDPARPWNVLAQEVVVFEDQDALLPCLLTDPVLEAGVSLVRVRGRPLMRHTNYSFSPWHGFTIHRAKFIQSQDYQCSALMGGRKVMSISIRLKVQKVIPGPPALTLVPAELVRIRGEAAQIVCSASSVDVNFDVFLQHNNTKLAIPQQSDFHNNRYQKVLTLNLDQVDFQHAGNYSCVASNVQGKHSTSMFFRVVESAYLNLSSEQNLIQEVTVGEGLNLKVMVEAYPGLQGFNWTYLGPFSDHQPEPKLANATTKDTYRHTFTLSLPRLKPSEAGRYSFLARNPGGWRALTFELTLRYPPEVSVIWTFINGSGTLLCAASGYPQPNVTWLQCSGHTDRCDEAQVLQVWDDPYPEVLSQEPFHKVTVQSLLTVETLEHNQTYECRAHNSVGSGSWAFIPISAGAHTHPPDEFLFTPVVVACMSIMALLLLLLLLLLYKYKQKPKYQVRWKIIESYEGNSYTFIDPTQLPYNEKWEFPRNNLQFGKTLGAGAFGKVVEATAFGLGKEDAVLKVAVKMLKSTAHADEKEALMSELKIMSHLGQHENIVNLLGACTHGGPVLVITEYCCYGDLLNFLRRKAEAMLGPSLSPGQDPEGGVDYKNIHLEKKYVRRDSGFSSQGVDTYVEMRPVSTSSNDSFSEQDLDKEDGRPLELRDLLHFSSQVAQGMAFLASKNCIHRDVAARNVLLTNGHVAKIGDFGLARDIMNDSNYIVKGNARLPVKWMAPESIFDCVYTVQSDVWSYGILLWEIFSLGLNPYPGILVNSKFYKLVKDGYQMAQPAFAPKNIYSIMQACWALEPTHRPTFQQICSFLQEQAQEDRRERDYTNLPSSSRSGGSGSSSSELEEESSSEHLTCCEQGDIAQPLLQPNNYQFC

Compound	Kd [1] [nM]	inhibition at 0.1 µM [2, 3] [%]	inhibition at 0.1 µM [2, 4] [%]	Kd [2] [nM]
COCCOc1cn(C2CC2)nc1C(=O)Nc1ccc(Oc2ccnc3cc(OC)c(OC)cc23)nn1 [Compound 171]	100 to 500	60	50 to 80	–
COc1cc2nccc(Oc3ccc(NC(=O)c4nn(C5CC5)cc4OCC4CNC4)nn3)c2cc1OC [Compound 172]	≥ 500	36	< 50	–
COc1cc2nccc(Oc3ccc(NC(=O)c4nn(C5CCNC5)cc4OCC(F)(F)F)c(F)c3)c2cc1OC (stereo not drawn) [Compound 74]	100 to 500	39	< 50	–
CCCn1cc(OCCN(C)C)c(C(=O)Nc2ccc(Oc3ccnc4cc(OC)c(OC)cc34)cn2)n1 [Compound 177]	100 to 500	–	–	–
COc1cc2nccc(Oc3ccc(NC(=O)c4nn(CC5CNC5)cc4OCC(F)(F)F)nc3)c2cc1OC [Compound 73]	100 to 500	97	≥ 80	–
COc1cc2nccc(Oc3ccc(NC(=O)c4sc(C5CC5)cc4OCC(F)(F)F)nc3)c2cc1OC [Compound 179]	100 to 500	–	–	–
COc1cc2nccc(Oc3ccc(NC(=O)c4nn(C5CCCC5)cc4OCC(F)(F)F)nc3)c2cc1OC [Compound 40]	< 100	94	≥ 80	–
COc1cc2nccc(Oc3ccc(NC(=O)c4nn(C)cc4OCC(F)(F)F)c(F)c3)c2cc1OC [Compound 45]	< 100	93	≥ 80	–
COc1cc2nccc(Oc3ccc(NC(=O)c4nn(CCCO)cc4OCC(F)(F)F)nc3)c2cc1OC [Compound 18]	< 100	97	≥ 80	–
COc1cc2nccc(Oc3ccc(NC(=O)c4nn(CC5CCC5)cc4OCC(F)(F)F)nc3)c2cc1OC [Compound 42]	< 100	95	≥ 80	–
COc1cc2nccc(Oc3ccc(NC(=O)c4nn(CCO)cc4OCC(F)(F)F)cc3)c2cc1OC [Compound 59]	< 100	82	≥ 80	–
COc1cc2nccc(Oc3ccc(NC(=O)c4nn(CC(C)C)cc4OCC(F)(F)F)nc3)c2cc1OC [Compound 21]	< 100	95	≥ 80	–
COc1cc2nccc(Oc3ccc(NC(=O)c4nn(CC5CCCCC5)cc4OCC(F)(F)F)nc3)c2cc1OC [Compound 43]	< 100	94	≥ 80	–
COc1cc2nccc(Oc3ccc(NC(=O)c4nn(C5CCCC5)cc4OCC(F)(F)F)c(F)c3)c2cc1OC [Compound 47]	< 100	91	≥ 80	–
COc1cc2nccc(Oc3ccc(NC(=O)c4nn(CC(C)C)cc4OCC(F)(F)F)c(F)c3)c2cc1OC [Compound 48]	< 100	82	≥ 80	–
COc1cc2nccc(Oc3ccc(NC(=O)c4cc(C5CC5)cnc4OCC(F)(F)F)nc3)c2cc1OC [Compound 178]	< 100	–	–	–
CCCn1cc(N(C)CC2CCOCC2)c(C(=O)Nc2ccc(Oc3ccnc4cc(OC)c(OC)cc34)cn2)n1 [Compound 34]	100 to 500	–	–	–

Results, then the molecule that gave them:

Kd [1] [nM]	inhibition at 0.1 µM [2, 3] [%]	inhibition at 0.1 µM [2, 4] [%]	Kd [2] [nM]	Compound
< 100	99	≥ 80	–	CCC(=O)n1cc(OCC(F)(F)F)c(C(=O)Nc2ccc(Oc3ccnc4cc(OC)c(OC)cc34)cn2)n1 [Compound 20]
< 100	96	≥ 80	–	COc1cc2nccc(Oc3ccc(NC(=O)c4nn(CC(C)N)cc4OCC(F)(F)F)nc3)c2cc1OC (stereo not drawn) [Compound 63]
< 100	98	≥ 80	–	COc1cc2nccc(Oc3ccc(NC(=O)c4nn(C)cc4OCC(F)(F)F)nc3)c2cc1OC [Compound 33]
< 100	79	50 to 80	–	COc1cc2nccc(Oc3ccc(NC(=O)c4nn(C5CCNC5)cc4OCC(F)(F)F)nc3)c2cc1OC (stereo not drawn) [Compound 70]
< 100	95	≥ 80	–	COc1cc2nccc(Oc3ccc(NC(=O)c4nn(CC(C)(F)F)cc4OCC(F)(F)F)nc3)c2cc1OC [Compound 64]
< 100	82	≥ 80	–	COc1cc2nccc(Oc3ccc(NC(=O)c4nn(CCO)cc4OCC(F)(F)F)cc3F)c2cc1OC [Compound 51]
< 100	87	≥ 80	–	CCCn1cc(OCC(F)(F)F)c(C(=O)Nc2ccc(Oc3ccnc4cc(OC)c(OC)cc34)cc2)n1 [Compound 38]
< 100	98	≥ 80	< 100	COc1cc2nccc(Oc3ccc(NC(=O)c4nn(C5CCOC5)cc4OCC(F)(F)F)nc3)c2cc1OC (stereo not drawn) [Compound 13]
< 100	81	≥ 80	–	COCCn1cc(OCC(F)(F)F)c(C(=O)Nc2ccc(Oc3ccnc4cc(OC)c(OC)cc34)c(F)c2)n1 [Compound 54]
< 100	96	≥ 80	–	COc1cc2nccc(Oc3ccc(NC(=O)c4nn(C5CCC5)cc4OCC(F)(F)F)nc3)c2cc1OC [Compound 24]
< 100	71	50 to 80	–	COc1cc2nccc(Oc3ccc(NC(=O)c4nn(C5CCCC5)cc4OCC(F)(F)F)cc3F)c2cc1OC [Compound 52]
< 100	89	≥ 80	100 to 500	COc1cc2nccc(Oc3ccc(NC(=O)c4nn(C(C)C)c(C)c4OCC(F)(F)F)nc3)c2cc1OC [Compound 2]
< 100	95	≥ 80	–	CCCn1cc(OCCC(F)(F)F)c(C(=O)Nc2ccc(Oc3ccnc4cc(OC)c(OC)cc34)cn2)n1 [Compound 31]
< 100	97	≥ 80	–	COc1cc2nccc(Oc3ccc(NC(=O)c4nn(CC(C)=O)cc4OCC(F)(F)F)nc3)c2cc1OC [Compound 19]
< 100	95	≥ 80	–	COc1cc2nccc(Oc3ccc(NC(=O)c4nn(CCNC5CC5)cc4OCC(F)(F)F)nc3)c2cc1OC [Compound 168]
< 100	93	≥ 80	–	COc1cc2nccc(Oc3ccc(NC(=O)c4nn(C(C)(C)C)cc4OCC(F)(F)F)nc3)c2cc1OC [Compound 22]
< 100	94	≥ 80	–	COc1cc2nccc(Oc3ccc(NC(=O)c4nn(CC(C)O)cc4OCC(F)(F)F)c(F)c3)c2cc1OC (stereo not drawn) [Compound 76]
< 100	80	50 to 80	–	COc1cc2nccc(Oc3ccc(NC(=O)c4nn(C)cc4OCC(F)(F)F)cc3F)c2cc1OC [Compound 50]
< 100	96	≥ 80	–	COc1cc2nccc(Oc3ccc(NC(=O)c4nn(C5COC5)cc4OCC(F)(F)F)nc3)c2cc1OC [Compound 66]
< 100	0	< 50	–	COc1cc2nccc(Oc3ccc(NC(=O)c4nn(CCO)cc4OCC(F)(F)F)cc3C)c2cc1OC [Compound 56]
< 100	99	≥ 80	–	COc1cc2nccc(Oc3ccc(NC(=O)c4nn(C[C@@H](C)O)cc4OCC(F)(F)F)nc3)c2cc1OC [Compound 29]
< 100	69	50 to 80	–	COc1cc2nccc(Oc3ccc(NC(=O)c4nn(C5CC5)cc4OCCC(F)(F)F)nn3)c2cc1OC [Compound 173]
< 100	75	50 to 80	–	COc1cc2nccc(Oc3ccc(NC(=O)c4nn(C5CCCC5)cc4OCC(F)(F)F)cc3)c2cc1OC [Compound 60]
